Reference: patent US20240132492A1, “PYRIDOPYRIMIDINE-BASED COMPOUND AND APPLICATION THEREOF” (JINAN UNIVERSITY, priority 2021, published 2024)

Key:
Format in all cases: cell-based
BT-549 = experiment: CCK-8 tumor cell proliferation, BT-549; details: Homo sapiens, BT-549 cells, 72 hours
Protocol: (§1) Tumor cells (see Table 2 to Table 5) were inoculated in 96-well plates in complete culture medium (2000-3000 cells/well). After overnight incubation, the compounds with different concentrations (0.000508 μM-10 μM) were used to treat the cells separately for 72 hours. CCK-8 (Cell Counting Kit 8, Dojindo Laboratories, Kumamoto, Japan) experiment was used to evaluate cell proliferation. GraphPad Prism 5.0 software (La Jolla, CA) was used to calculate the half-maximal inhibitory concentration (IC50) values by fitting the concentration response curve. Each IC50 value was represented as an average value±SD.

Huh7 = experiment: CCK-8 tumor cell proliferation, Huh7; details: Homo sapiens, Huh-7, Huh7 cells, 72 hours
Protocol: as §1

AKT1 = target: T1, AKT1 (Homo sapiens, UniProt P31749); experiment: Western Blot, degradation of AKT1 protein in H1975-OR cells; details: 24 hours, maximum degradation rate; for Dmax at 1 µM: 1000 nM
T1 construct: AKT1, AKT2, and AKT3 proteins in H1975-OR cells; endogenous in cells; host or cells: H1975-OR (osimertinib-resistant H1975)
T1 sequence (P31749 whole entry): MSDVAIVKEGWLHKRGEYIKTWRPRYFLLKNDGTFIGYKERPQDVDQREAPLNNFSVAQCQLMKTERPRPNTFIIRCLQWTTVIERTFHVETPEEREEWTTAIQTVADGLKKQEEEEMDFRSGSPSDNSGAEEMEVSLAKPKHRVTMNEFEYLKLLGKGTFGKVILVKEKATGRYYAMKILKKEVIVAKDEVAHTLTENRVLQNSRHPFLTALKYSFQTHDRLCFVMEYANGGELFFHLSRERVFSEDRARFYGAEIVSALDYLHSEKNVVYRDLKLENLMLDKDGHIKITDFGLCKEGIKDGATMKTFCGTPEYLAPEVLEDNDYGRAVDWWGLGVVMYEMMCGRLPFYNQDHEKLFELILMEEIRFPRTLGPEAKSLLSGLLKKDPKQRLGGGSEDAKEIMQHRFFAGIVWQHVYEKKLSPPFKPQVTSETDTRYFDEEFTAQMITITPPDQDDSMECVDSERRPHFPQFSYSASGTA
In short: (§2)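 H1975-OR cells are Osimertinib-resistant H1975, adapted stepwise from 50 nM to 3 μM Osimertinib. Cells were treated with compound for 24 h, lysed, and immunoblotted with ECL detection. Band grayscale density was quantified.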

AKT2 = target: T2, AKT2 (Homo sapiens, UniProt P31751); experiment: Western Blot, degradation of AKT2 protein in H1975-OR cells; details: 24 hours, maximum degradation rate; for Dmax at 1 µM: 1000 nM
T2 construct: AKT1, AKT2, and AKT3 proteins in H1975-OR cells; endogenous in cells; host or cells: H1975-OR (osimertinib-resistant H1975)
T2 sequence (P31751 whole entry): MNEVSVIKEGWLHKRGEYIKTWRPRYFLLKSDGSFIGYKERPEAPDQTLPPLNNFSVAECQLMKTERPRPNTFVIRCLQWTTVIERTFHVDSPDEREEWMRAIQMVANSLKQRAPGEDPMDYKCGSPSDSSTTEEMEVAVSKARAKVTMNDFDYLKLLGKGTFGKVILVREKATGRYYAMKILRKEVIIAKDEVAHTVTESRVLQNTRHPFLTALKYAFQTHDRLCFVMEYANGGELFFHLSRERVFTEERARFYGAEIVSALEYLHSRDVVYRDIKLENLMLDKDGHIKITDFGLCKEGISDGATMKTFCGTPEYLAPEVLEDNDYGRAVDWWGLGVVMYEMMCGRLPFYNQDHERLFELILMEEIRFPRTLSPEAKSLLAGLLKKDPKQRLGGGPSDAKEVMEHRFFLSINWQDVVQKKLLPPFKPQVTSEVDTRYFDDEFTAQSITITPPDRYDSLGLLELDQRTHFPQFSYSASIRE
In short: as §2

H1975 = experiment: CCK-8 tumor cell proliferation, H1975; details: 72 hours
In short: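 Tumor cells grown in complete medium are exposed for 72 hours to compounds spanning 0.000508 μM to 10 μM. Viability is read by CCK-8 and IC50 derived by concentration-response fitting.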

H1975OR = experiment: CCK-8 tumor cell proliferation, H1975OR; details: H1975OR cells (Osimertinib resistant), 72 hours
In short: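 Osimertinib-resistant H1975 cells, selected by raising Osimertinib stepwise from 50 nM to 3 μM, were treated for 72 h with compound at 0.000508–10 μM. Proliferation was read by CCK-8, and IC50 came from fitting the concentration–response curve, given as mean ± SD.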

PC-9 = experiment: CCK-8 tumor cell proliferation, PC-9; details: PC-9 cells, 72 hours
Protocol: as §1

A431 = experiment: CCK-8 tumor cell proliferation, A431; details: 72 hours
Protocol: as §1

HCC827 = experiment: CCK-8 tumor cell proliferation, HCC827; details: HCC827 cells, 72 hours
Protocol: as §1

H1299 = experiment: CCK-8 tumor cell proliferation, H1299; details: 72 hours
Protocol: as §1

AKT3 = AKT3 (Homo sapiens, UniProt Q9Y243); experiment: Western Blot, degradation of AKT3 protein in H1975-OR cells; set-up: endogenous in cells; host or cells: H1975-OR (osimertinib-resistant H1975); details: 24 hours, maximum degradation rate; for Dmax at 1 µM: 1000 nM
AKT3, sequence (Q9Y243 whole entry): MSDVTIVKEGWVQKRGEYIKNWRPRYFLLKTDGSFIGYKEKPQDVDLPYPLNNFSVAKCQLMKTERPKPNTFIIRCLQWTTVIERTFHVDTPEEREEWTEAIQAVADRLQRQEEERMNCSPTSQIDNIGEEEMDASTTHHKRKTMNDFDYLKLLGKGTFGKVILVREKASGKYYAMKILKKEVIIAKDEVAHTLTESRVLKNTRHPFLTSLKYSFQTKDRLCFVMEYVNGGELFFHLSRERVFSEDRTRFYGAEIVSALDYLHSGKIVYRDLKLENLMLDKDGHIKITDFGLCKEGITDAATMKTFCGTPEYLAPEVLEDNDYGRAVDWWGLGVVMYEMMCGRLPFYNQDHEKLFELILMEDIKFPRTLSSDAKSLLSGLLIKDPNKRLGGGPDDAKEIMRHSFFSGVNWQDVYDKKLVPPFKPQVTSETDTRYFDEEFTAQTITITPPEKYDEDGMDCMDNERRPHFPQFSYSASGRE
In short: as §2

[1] = Homo sapiens, NCI-H1975, H1975 cells
[2] = Homo sapiens, A-431, A431 cells
[3] = Homo sapiens, NCI-H1299, H1299 cells

| IC50 (BT-549) [µM] | IC50 (Huh7) [µM] | Dmax at 1 µM (AKT1) [%] | Dmax at 1 µM (AKT2) [%] | IC50 (H1975; [1]) [µM] | IC50 (H1975OR) [µM] | IC50 (PC-9; Homo sapiens) [µM] | IC50 (A431; [2]) [µM] | IC50 (HCC827; Homo sapiens) [µM] | IC50 (H1299; [3]) [µM] | Dmax at 1 µM (AKT3) [%] | Structure (SMILES) | other results |
| --- | --- | --- | --- | --- | --- | --- | --- | --- | --- | --- | --- | --- |
| – | – | 34.4 | 29.9 | 5.19 ± 4.59 | 0.009 ± 0.002 | 0.0083 ± 0.000333 | 0.00806 ± 0.0003 | 0.126 ± 0.0216 | 0.338 ± 0.0855 | 71.9 | C=CC(=O)Nc1cccc(-n2c(=O)cc(C)c3cnc(Nc4ccc(N5CCN(CCCCCCCCCCCCNC(=O)CC67CC8CC(CC(C8)C6)C7)CC5)cc4OC)nc32)c1 [ZX-HYT-05, N-(3-(2-((4-(4-(12-(2-(((3R, 5R, 7R)-adamantan-1-yl)acetylamino)dodecyl)piperazin-1-yl)-2-methoxyphenyl)amino)-5-methyl-7-oxypyridino [2,3-d]pyrimidin-8 (7H)-yl)phenyl)acrylamide] | – |
| – | – | 46.4 | 45.9 | 0.214 ± 0.013 | 0.023 ± 0.007 | 0.0234 ± 0.00578 | 0.0225 ± 0.0035 | 0.186 ± 0.122 | 2.1 ± 0.049 | 76.4 | COc1cc(N2CCN(CCCCCCCCCCCCNC(=O)CC34CC5CC(CC(C5)C3)C4)CC2)ccc1Nc1ncc2c(C)cc(=O)n(-c3cccc(N)c3)c2n1 [ZX-HYT-17, 2-((3R, 5R, 7R)-adamantan-1-yl)-N-(12-(4-(4-(8-(3-aminophenyl)-5-methyl-7-oxy-7,8-dihydropyridino [2,3-d]pyrimidin-2-yl)amino)-3-methoxyphenyl)piperazin-1-yl) dodecyl) acetamide] | – |
| – | – | 0 | 0 | 8.47 | 0.0107 ± 0.003 | 0.109 ± 0.019 | 0.00986 ± 0.0022 | 0.157 ± 0.0679 | 0.212 ± 0.0153 | 66.8 | CCC(=O)Nc1cccc(-n2c(=O)cc(C)c3cnc(Nc4ccc(N5CCN(CCCCCCCCCCCCNC(=O)CC67CC8CC(CC(C8)C6)C7)CC5)cc4OC)nc32)c1 [ZX-HYT-08, N-(3-(2-((4-(4-(12-(2-((3R, 5R, 7R)-adamantan-1-yl)acetylamino)dodecyl)piperazin-1-yl)-2-methoxyphenyl)amino)-5-methyl-7-oxypyridino [2,3-d]pyrimidin-8 (7H)-yl)phenyl) propionamide] | – |
| – | – | 0 | 25.3 | 0.142 ± 0.0494 | 0.0196 ± 0.00141 | 0.126 ± 0.0177 | 0.0517 | 0.309 ± 0.139 | 1.81 ± 0.395 | 57.1 | COc1cc(N2CCN(CCCCCCCCCCCCNC(=O)CC34CC5CC(CC(C5)C3)C4)CC2)ccc1Nc1ncc2c(C)cc(=O)n(-c3cccc(NC(=O)C(C)C)c3)c2n1 [ZX-HYT-10, N-(3-(2-((4-(4-(12-(2-(((3R, 5R, 7R)-adamantan-1-yl)acetylamino)dodecyl)piperazin-1-yl)-2-methoxyphenyl)amino)-5-methyl-7-oxypyridino [2,3-d]pyrimidin-8 (7H)-yl)phenyl)isobutylamide] | – |
| – | – | 0 | 0 | 0.119 ± 0.0112 | 0.0236 ± 0.00351 | 0.215 ± 0.0636 | 0.0106 ± 0.002 | 0.134 ± 0.064 | 0.624 ± 0.0448 | 75.7 | COc1cc(N2CCN(CCCCCCCCCCCCNC(=O)CC34CC5CC(CC(C5)C3)C4)CC2)ccc1Nc1ncc2c(C)cc(=O)n(-c3cccc(NC(C)=O)c3)c2n1 [ZX-HYT-09, N-(12-(4-(4-((8-(3-acetylaminophenyl)-5-methyl-7-oxy-7,8-dihydropyridino [2,3-d]pyrimidin-2-yl]amino)-3-methoxyphenyl)piperazin-1-yl)dodecyl)-2-((3R, 5R, 7R)-adamantan-1-yl) acetamide] | – |

Continued, molecule first:

| Structure (SMILES) | IC50 (BT-549) [µM] | IC50 (Huh7) [µM] | Dmax at 1 µM (AKT1) [%] | Dmax at 1 µM (AKT2) [%] | IC50 (H1975; [1]) [µM] | IC50 (H1975OR) [µM] | IC50 (PC-9; Homo sapiens) [µM] | IC50 (A431; [2]) [µM] | IC50 (HCC827; Homo sapiens) [µM] | IC50 (H1299; [3]) [µM] | Dmax at 1 µM (AKT3) [%] | other results |
| --- | --- | --- | --- | --- | --- | --- | --- | --- | --- | --- | --- | --- |
| COc1cc(N2CC3(CN(C(=O)CC45CC6CC(CC(C6)C4)C5)C3)C2)ccc1Nc1ncc2c(C)cc(=O)n(-c3cccc(NC(=O)C4CC4)c3)c2n1 [ZX-HYT-91, N-(3-(2-((4-(6-(2-((3R,5R,7R)-adamantan-1-yl)acetyl)-2,6-diazospira [3.3]hept-2-yl))-2-methoxyphenyl)amino)-5-methyl-7-oxypyridino [2,3-d]pyrimidin-8 (7H)-yl) phenyl) cyclopropane formamide] | 0.937 | 3 | – | – | – | – | – | – | – | – | – | – |
| COc1nc(N2CCN(C(=O)NC34CC5CC(CC(C5)C3)C4)CC2)ccc1Nc1ncc2c(C)cc(=O)n(-c3cccc(NC(=O)C4CC4)c3)c2n1 [ZX-HYT-68, N-((3S, 5S, 7S)-adamantan-1-yl)-4-(5-((8-(3-(cyclopropaneformamido)phenyl)-5-methyl-7-oxy-7,8-dihydropyridino [2,3-d]pyrimidin-2-yl)amino)-6-methoxypyridin-2-yl) piperazin-1-formamide] | 0.0386 | > 10 | – | – | – | – | – | – | – | – | – | – |
| COc1cc(N2CCN(C(=O)NC34CC5CC(CC(C5)C3)C4)CC2)ncc1Nc1ncc2c(C)cc(=O)n(-c3cccc(NC(=O)C4CC4)c3)c2n1 [ZX-HYT-71, N-((3S, 5S, 7S)-adamantan-1-yl)-4-(5-((8-(3-(cyclopropaneformamido)phenyl)-5-methyl-7-oxy-7,8-dihydropyridino [2,3-d]pyrimidin-2-yl)amino)-4-methoxypyridin-2-yl) piperazin-1-formamide] | 1.25 | > 10 | – | – | – | – | – | – | – | – | – | – |
| C=CC(=O)Nc1cccc(-n2c(=O)cc(C)c3cnc(Nc4ccc(N5CCN(CCCCCCNC(=O)CC67CC8CC(CC(C8)C6)C7)CC5)cc4OC)nc32)c1 [ZX-HYT-02, N-(3-(2-((4-(4-(6-(2-(((3R, 5R, 7R)-adamantan-1-yl)acetamido)hexyl)piperazin-1-yl)-2-methoxyphenyl)amino)-5-methyl-7-oxypyridino [2,3-d]pyrimidin-8 (7H)-yl)phenyl)acrylamide] | – | – | 0 | 0 | 0.194 ± 0.063 | 0.167 ± 0.025 | 0.255 ± 0.0394 | 0.102 ± 0.0095 | 0.105 ± 0.00819 | 8.74 ± 1.12 | 30.8 | – |
| COc1cc(N2CCN(C(=O)C34CC5CC(CC(C5)C3)C4)CC2)ncc1Nc1ncc2c(C)cc(=O)n(-c3cccc(NC(=O)C4CC4)c3)c2n1 [ZX-HYT-72, N-(3-(2-((6-(4-((3R, 5R, 7R)-adamantan-1-carbonyl)piperazin-1-yl)-4-methoxypyridin-3-yl)amino)-5-methyl-7-oxypyridino [2,3-d]pyrimidin-8 (7H)-yl)phenyl) cyclopropane formamide] | 0.626 | 3 | – | – | – | – | – | – | – | – | – | – |
| COc1cc(N2CCN(C(=O)CC34CC5CC(CC(C5)C3)C4)CC2)ncc1Nc1ncc2c(C)cc(=O)n(-c3cccc(NC(=O)C4CC4)c3)c2n1 [ZX-HYT-70, N-(3-(2-((6-(4-(2-((3R, 5R, 7R)-adamantan-1-yl)acetyl)piperazin-1-yl)-4-methoxypyridin-3-yl))amino)-5-methyl-7-oxypyridino [2,3-d]pyrimidin-8 (7H)-yl) phenyl) cyclopropane formamide] | 1.02 | > 10 | – | – | – | – | – | – | – | – | – | – |
| C=CC(=O)Nc1cccc(-n2c(=O)cc(C)c3cnc(Nc4ccc(N5CCN(CCOCCOCCNC(=O)CC67CC8CC(CC(C8)C6)C7)CC5)cc4OC)nc32)c1 [ZX-HYT-01] | – | – | 59.2 | 27.2 | 3.27 ± 0.598 | 2.01 ± 0.444 | 1.57 ± 0.258 | 0.541 ± 0.0589 | 0.141 ± 0.0372 | 10.4 ± 1.72 | 67.6 | – |
| COc1nc(N2CCN(C(=O)C34CC5CC(CC(C5)C3)C4)CC2)ccc1Nc1ncc2c(C)cc(=O)n(-c3cccc(NC(=O)C4CC4)c3)c2n1 [ZX-HYT-69, N-(3-(2-((6-(4-((3R, 5R, 7R)-adamantan-1-carbonyl)piperazin-1-yl)-2-methoxypyridin-3-yl)amino)-5-methyl-7-oxypyridino [2,3-d]pyrimidin-8 (7H)-yl)phenyl) cyclopropane formamide] | 3 | > 10 | – | – | – | – | – | – | – | – | – | – |
| C=CC(=O)Nc1cccc(-n2c(=O)cc(C)c3cnc(Nc4ccc(N5CCN(C(=O)CCCCCCCCCCCNC(=O)CC67CC8CC(CC(C8)C6)C7)CC5)cc4OC)nc32)c1 [ZX-HYT-07, N-(3-(2-((4-(4-(12-(2-((3R, 5R, 7R)-adamantan-1-yl)acetylamino)dodecanoyl)piperazin-1-yl)-2-methoxyphenyl)amino)-5-methyl-7-oxypyridino [2,3-d]pyrimidin-8 (7H)-yl)phenyl) acrylamide] | – | – | – | – | – | 0.417 ± 0.08 | – | – | – | – | – | Dmax (%) at 1000 nM AKT1 (AKT1): 0%; Dmax (%) at 1000 nM AKT2 (AKT2): 0%; IC50 (H1975; H1975 cells): 5.07 ± 0.836 µM; IC50 (PC-9): 6.79 ± 3.6 µM; IC50 (A431; A431 cells): 0.0839 ± 0.0133 µM; IC50 (HCC827): 0.882 ± 0.0945 µM; IC50 (H1299; H1299 cells): 1.46 ± 0.428 µM; Dmax (%) at 1000 nM AKT3 (AKT3): 69.2% |
